{"source": "paper PMC2928817", "about": "(PLoS Pathogens, 2010)", "key": {"[1]": {"molecular_target": "NA of A/Osaka/180/2009 (O180r; NA H274Y) (Influenza A virus, UniProt C3W5S3, H275Y)", "format": "biochemical, 2009 pandemic influenza A (H1N1) virus"}, "[2]": {"molecular_target": "NA of A/Vietnam/HN32060/2009 (VN32060r; NA H274Y) (Influenza A virus, UniProt C3W5S3, H275Y)", "format": "biochemical, 2009 pandemic influenza A (H1N1) virus"}}}
{"smiles": "CC(=O)N[C@H]1[C@H]([C@H](O)[C@H](O)CO)OC(C(=O)O)=C[C@@H]1N=C(N)N", "note": "[Zanamivir]", "values": [{"measurement": "IC50 value of O180r compared with O164s", "setting": "[1]", "value": "comparable"}, {"measurement": "IC50 value of VN32060r compared with VN9727s", "setting": "[2]", "value": "comparable"}]}
